Assay results published in patent US7229782B1, “Antibodies specific to multiple beta blockers and methods for their use” (LabOne, Inc., priority 2004, dated 2007).

Tested on: antibody of the present invention
Test: Interference from other drugs, homogeneous enzyme immunoassay
Assay type: binding, rabbit
Conditions: chemical at 10.0 μg/ml urine; cutoff 5.0 μg Atenolol per ml of urine; tested three times
Protocol: Samples were checked for turbidity and growth. A homogeneous enzyme immunoassay was carried out on an Olympus AU-5200 analyzer using the following assay parameters:
Reagent 1 is comprised of a titer of 1–500 dilution of an antibody of the present invention, 11.25 mM NAD+, 11.25 mM G6P, 0.1% w/v sodium azide and 100 mM Tris.
Reagent 2 is comprised of a titer of 1–2000 dilution of a G6PDH-beta blocker conjugate, 0.1% w/v sodium azide, and 50 mM Tris.
A homogenous calibrator containing sodium azide was used to calibrate the analyzer prior to each run.
The analytical cutoff for the test was set at 5.0 μg Atenolol per ml of urine. The result was scored as a positive if the signal strength was greater than that produced by 5.0 μg Atenolol per ml of urine.
Interference from other drugs was tested using fifty-five (55) frequently used chemicals and medicines, at concentrations of 10.0 μg/ml urine.
The samples were tested three times, following the procedures used in Example 3.

Compound	Beta-Blocker Pos./Neg.
COc1ccc2c(c1)[C@]13CCCC[C@@H]1[C@H](C2)N(C)CC3 [Dextromethorphan]	Neg. (scored as a positive if the signal strength was greater than that produced by 5.0 μg Atenolol per ml of urine)
CC(C(=O)O)c1cccc(Oc2ccccc2)c1 (stereo not drawn) [Fenoprofen]	Neg. (scored as a positive if the signal strength was greater than that produced by 5.0 μg Atenolol per ml of urine)
NCCc1ccccc1 [Phenethylamine (beta-)]	Neg. (scored as a positive if the signal strength was greater than that produced by 5.0 μg Atenolol per ml of urine)
C=CCC1(CC(C)C)C(=O)NC(=O)NC1=O [Butalbital]	Neg. (scored as a positive if the signal strength was greater than that produced by 5.0 μg Atenolol per ml of urine)
Cc1cc(CC(=O)O)n(C)c1C(=O)c1ccc(Cl)cc1 [Zomepirac]	Neg. (scored as a positive if the signal strength was greater than that produced by 5.0 μg Atenolol per ml of urine)
Cc1ccc(C)c(OCCCC(C)(C)C(=O)O)c1 [Gemfibrozil]	Neg. (scored as a positive if the signal strength was greater than that produced by 5.0 μg Atenolol per ml of urine)
CN[C@@H](C)Cc1ccccc1 [Methamphetamine (D-)]	Neg. (scored as a positive if the signal strength was greater than that produced by 5.0 μg Atenolol per ml of urine)
CN[C@@H](C)[C@H](O)c1ccccc1 [Ephedrine (L-)]	Neg. (scored as a positive if the signal strength was greater than that produced by 5.0 μg Atenolol per ml of urine)
CN(C)CCCN1c2ccccc2Sc2ccc(Cl)cc21 [Chlorpromazine]	Neg. (scored as a positive if the signal strength was greater than that produced by 5.0 μg Atenolol per ml of urine)
CCN(CC)CCOC(=O)c1ccc(N)cc1 [Procaine]	Neg. (scored as a positive if the signal strength was greater than that produced by 5.0 μg Atenolol per ml of urine)
CC(C)Cc1ccc(C(C)C(=O)O)cc1 (stereo not drawn) [Ibuprofen]	Neg. (scored as a positive if the signal strength was greater than that produced by 5.0 μg Atenolol per ml of urine)
COC(=O)[C@@H]1[C@H]2CC[C@@H](C[C@@H]1O)N2C.Cl [Ecgonine Methyl Ester Hydrochloride]	Neg. (scored as a positive if the signal strength was greater than that produced by 5.0 μg Atenolol per ml of urine)
O=C(O)c1cc(O)ccc1O [Gentisic Acid]	Neg. (scored as a positive if the signal strength was greater than that produced by 5.0 μg Atenolol per ml of urine)
CN[C@@H](C)[C@@H](O)c1ccccc1 [Pseudoephedrine]	Neg. (scored as a positive if the signal strength was greater than that produced by 5.0 μg Atenolol per ml of urine)
CC(=O)Oc1ccccc1C(=O)O [Acetylsalicylic Acid]	Neg. (scored as a positive if the signal strength was greater than that produced by 5.0 μg Atenolol per ml of urine)
O=C(O)C1N=C(c2ccccc2)c2cc(Cl)ccc2NC1=O (stereo not drawn) [Clorazepate]	Neg. (scored as a positive if the signal strength was greater than that produced by 5.0 μg Atenolol per ml of urine)
CC1(C)S[C@@H]2[C@H](NC(=O)[C@H](N)c3ccccc3)C(=O)N2[C@H]1C(=O)O [Ampicillin]	Neg. (scored as a positive if the signal strength was greater than that produced by 5.0 μg Atenolol per ml of urine)
O=C1CN=C(c2ccccc2Cl)c2cc([N+](=O)[O-])ccc2N1 [Clonazepam]	Neg. (scored as a positive if the signal strength was greater than that produced by 5.0 μg Atenolol per ml of urine)
Cc1nnc2n1-c1ccc(Cl)cc1C(c1ccccc1)=NC2 [Alprazolam]	Neg. (scored as a positive if the signal strength was greater than that produced by 5.0 μg Atenolol per ml of urine)
CN1C(=O)C(O)N=C(c2ccccc2)c2cc(Cl)ccc21 (stereo not drawn) [Temazepam]	Neg. (scored as a positive if the signal strength was greater than that produced by 5.0 μg Atenolol per ml of urine)
CCC(=O)C(CC(C)N(C)C)(c1ccccc1)c1ccccc1 (racemic) [Methadone (DL-)]	Neg. (scored as a positive if the signal strength was greater than that produced by 5.0 μg Atenolol per ml of urine)
C=CCN1CC[C@]23c4c5ccc(O)c4O[C@H]2[C@@H](O)C=C[C@H]3[C@H]1C5 [Nalorphine]	Neg. (scored as a positive if the signal strength was greater than that produced by 5.0 μg Atenolol per ml of urine)
COc1ccc2cc([C@H](C)C(=O)O)ccc2c1 [Naproxen]	Neg. (scored as a positive if the signal strength was greater than that produced by 5.0 μg Atenolol per ml of urine)

Compound	Beta-Blocker Pos./Neg.
CN[C@@H](C)[C@H](O)c1ccccc1.Cl [Ephedrine Hydrochloride (1R,2S)-(−)]	Neg. (scored as a positive if the signal strength was greater than that produced by 5.0 μg Atenolol per ml of urine)
CN(C)CCCN1c2ccccc2CCc2ccccc21 [Imipramine]	Neg. (scored as a positive if the signal strength was greater than that produced by 5.0 μg Atenolol per ml of urine)
NC(=O)c1cccnc1 [Niacinamide]	Neg. (scored as a positive if the signal strength was greater than that produced by 5.0 μg Atenolol per ml of urine)
C[C@H](N)Cc1ccccc1 [Amphetamine (D-)]	Neg. (scored as a positive if the signal strength was greater than that produced by 5.0 μg Atenolol per ml of urine)
CCCC(C)C1(CC)C(=O)NC(=O)NC1=O (stereo not drawn) [Pentobarbital]	Neg. (scored as a positive if the signal strength was greater than that produced by 5.0 μg Atenolol per ml of urine)
(−)-11-NOR-9-Carboxy-Delta9-THC	Neg. (scored as a positive if the signal strength was greater than that produced by 5.0 μg Atenolol per ml of urine)
C=C[C@H]1C[N@@]2CC[C@H]1C[C@@H]2[C@@H](O)c1ccnc2ccc(OC)cc12 [Quinidine]	Neg. (scored as a positive if the signal strength was greater than that produced by 5.0 μg Atenolol per ml of urine)
CC(N)C(O)c1ccccc1 (stereo not drawn) [Phenylpropanolamine]	Neg. (scored as a positive if the signal strength was greater than that produced by 5.0 μg Atenolol per ml of urine)
CN1C(=O)CC[C@H]1c1cccnc1 [(−)-Cotinine]	Neg. (scored as a positive if the signal strength was greater than that produced by 5.0 μg Atenolol per ml of urine)
CCN(CC)CC(=O)Nc1c(C)cccc1C [Lidocaine]	Neg. (scored as a positive if the signal strength was greater than that produced by 5.0 μg Atenolol per ml of urine)
Ecgonine Hydrochloride	Neg. (scored as a positive if the signal strength was greater than that produced by 5.0 μg Atenolol per ml of urine)
CN1[C@H]2CC[C@@H]1[C@@H](C(=O)O)[C@@H](OC(=O)c1ccccc1)C2 [Benzoylecgonine]	Neg. (scored as a positive if the signal strength was greater than that produced by 5.0 μg Atenolol per ml of urine)
COc1ccc2c3c1O[C@H]1[C@@H](O)C=C[C@H]4[C@@H](C2)N(C)CC[C@@]341 [Codeine]	Neg. (scored as a positive if the signal strength was greater than that produced by 5.0 μg Atenolol per ml of urine)
Penicillin	Neg. (scored as a positive if the signal strength was greater than that produced by 5.0 μg Atenolol per ml of urine)
c1ccc(C2(N3CCCCC3)CCCCC2)cc1 [Phencyclidine]	Neg. (scored as a positive if the signal strength was greater than that produced by 5.0 μg Atenolol per ml of urine)
Cn1c(=O)c2c(ncn2C)n(C)c1=O [Caffeine]	Neg. (scored as a positive if the signal strength was greater than that produced by 5.0 μg Atenolol per ml of urine)
CCN(CC)CCNC(=O)c1ccc(N)cc1 [Procainamide]	Neg. (scored as a positive if the signal strength was greater than that produced by 5.0 μg Atenolol per ml of urine)
Cn1c(=O)c2[nH]cnc2n(C)c1=O [Theophylline]	Neg. (scored as a positive if the signal strength was greater than that produced by 5.0 μg Atenolol per ml of urine)
COc1ccc2c3c1O[C@H]1C(=O)CC[C@H]4[C@@H](C2)N(C)CC[C@]314 [Hydrocodone]	Neg. (scored as a positive if the signal strength was greater than that produced by 5.0 μg Atenolol per ml of urine)
CCOC(=O)[C@@H]1C2CCC(C[C@@H]1OC(=O)c1ccccc1)N2C (stereo partly drawn) [Cocainethylene]	Neg. (scored as a positive if the signal strength was greater than that produced by 5.0 μg Atenolol per ml of urine)
PCP	Neg. (scored as a positive if the signal strength was greater than that produced by 5.0 μg Atenolol per ml of urine)
CNC[C@H](O)c1cccc(O)c1 [Phenylephrine]	Neg. (scored as a positive if the signal strength was greater than that produced by 5.0 μg Atenolol per ml of urine)
